Each structure is given as a SMILES string. A value given as a limit tells only on which side of the number the result lay.

human α2δ-1 subunit of Cav2.2 calcium channel, sequence (P54289 25-1103): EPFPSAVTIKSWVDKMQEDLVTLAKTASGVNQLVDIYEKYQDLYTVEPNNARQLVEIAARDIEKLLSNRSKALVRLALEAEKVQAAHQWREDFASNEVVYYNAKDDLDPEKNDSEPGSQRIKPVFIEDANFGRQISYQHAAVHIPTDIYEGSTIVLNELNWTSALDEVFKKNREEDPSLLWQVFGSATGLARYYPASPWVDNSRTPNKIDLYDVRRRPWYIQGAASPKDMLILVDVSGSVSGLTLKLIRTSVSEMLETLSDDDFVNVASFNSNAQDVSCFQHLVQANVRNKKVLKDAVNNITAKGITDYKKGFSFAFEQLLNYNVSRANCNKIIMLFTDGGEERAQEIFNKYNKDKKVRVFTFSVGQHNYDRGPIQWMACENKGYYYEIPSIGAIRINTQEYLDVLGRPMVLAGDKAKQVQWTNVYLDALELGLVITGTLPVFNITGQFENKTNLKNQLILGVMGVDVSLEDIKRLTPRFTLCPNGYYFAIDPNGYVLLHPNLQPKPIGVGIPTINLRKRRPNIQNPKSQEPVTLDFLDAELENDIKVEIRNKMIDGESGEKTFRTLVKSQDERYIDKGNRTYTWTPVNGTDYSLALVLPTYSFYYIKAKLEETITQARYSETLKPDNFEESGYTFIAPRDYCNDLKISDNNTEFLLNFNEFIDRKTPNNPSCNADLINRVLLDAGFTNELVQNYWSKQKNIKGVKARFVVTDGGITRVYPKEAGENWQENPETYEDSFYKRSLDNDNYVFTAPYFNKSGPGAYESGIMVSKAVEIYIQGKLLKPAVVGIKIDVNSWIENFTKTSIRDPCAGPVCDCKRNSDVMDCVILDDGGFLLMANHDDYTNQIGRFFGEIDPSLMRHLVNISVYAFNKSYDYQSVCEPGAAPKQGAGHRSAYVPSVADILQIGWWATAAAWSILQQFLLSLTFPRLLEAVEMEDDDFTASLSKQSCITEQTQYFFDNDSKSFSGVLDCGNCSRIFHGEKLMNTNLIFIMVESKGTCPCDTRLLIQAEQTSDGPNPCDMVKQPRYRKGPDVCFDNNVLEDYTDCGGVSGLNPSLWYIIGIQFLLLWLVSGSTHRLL

The target of the assay is human α2δ-1 subunit of Cav2.2 calcium channel (Homo sapiens (Human), UniProt P54289). The experiment in a line: Binding assay to human α2δ-1 subunit of Cav2.2 calcium channel ([3H]-Gabapentin). The note with it: binding to α2δ-1, [3H]-Gabapentin; read-out: Ki (nM) α2δ-1. The gist of the method:
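Radioactivity on dried GF/C filters quantified by scintillation after filtration and three cold Tris-HCl (pH 7.4) washes. Incubation ran 60 min at 27° C with [3H]-gabapentin; 10 μM pregabalin gave nonspecific binding.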
For the compound `Cc1nnc(-c2cccc(N3CCN(C)c4nc(N(C)Cc5ccccc5)ncc4C3=O)c2)o1` [Example 104, 2-(benzyl(methyl)amino)-9-methyl-6-(3-(5-methyl-1,3,4-oxadiazol-2-yl)phenyl)-6,7,8,9-tetrahydro-5H-pyrimido[4,5-e][1,4]diazepin-5-one], the Ki is above 3000 nM.

Turning to `Cc1nnc(-c2cccc(N3CCN(C)c4nc(NCCc5ccccc5)ncc4C3=O)c2)o1` [Example 105, 9-methyl-6-(3-(5-methyl-1,3,4-oxadiazol-2-yl)phenyl)-2-(phenethylamino)-6,7,8,9-tetrahydro-5H-pyrimido[4,5-e][1,4]diazepin-5-one], the Ki was above 3000 nM.

Regarding `Cc1nnc(-c2cccc(N3CCN(C)c4nc(N(C)Cc5ccccn5)ncc4C3=O)c2)o1` [Example 106, 9-methyl-2-(methyl (pyridin-2-ylmethyl)amino)-6-(3-(5-methyl-1,3,4-oxadiazol-2-yl)phenyl)-6,7,8,9-tetrahydro-5H-pyrimido[4,5-e][1,4]diazepin-5-one], the inhibitory constant (Ki) was above 3000 nM.

For the compound `CCNc1ncc2c(n1)N(CC)CCN(c1cccc(-c3nnc(C)o3)c1)C2=O` [Example 107, 9-ethyl-2-(ethylamino)-6-(3-(5-methyl-1,3,4-oxadiazol-2-yl)phenyl)-6,7,8,9-tetrahydro-5H-pyrimido[4,5-e][1,4]diazepin-5-one], the Ki fell in the range of 100 to 500 nM.

Regarding `CCNc1ncc2c(n1)N(C)CCN(c1cccc(-c3noc(C)n3)c1)C2=O` [Example 108, 2-(ethylamino)-9-methyl-6-(3-(5-methyl-1,2,4-oxadiazol-3-yl)phenyl)-6,7,8,9-tetrahydro-5H-pyrimido[4,5-e][1,4]diazepin-5-one], the Ki fell in the range of 100 to 500 nM.

With `CCNc1ncc2c(n1)N(C)CCN(c1cccc(OC)c1)C2=O` [Example 109, 2-(ethylamino)-6-(3-methoxyphenyl)-9-methyl-6,7,8,9-tetrahydro-5H-pyrimido[4,5-e][1,4]diazepin-5-one], the inhibitory constant (Ki) was in the range of 500 to 3000 nM.

On to `CCNc1ncc2c(n1)N(C)CCN(c1cccc(C#N)c1)C2=O` [Example 110, 3-(2-(ethylamino)-9-methyl-5-oxo-5,7,8,9-tetrahydro-6H-pyrimido[4,5-e][1,4]diazepin-6-yl)benzonitrile], for which the Ki is above 3000 nM.

Turning to `CCNc1ncc2c(n1)N(C)CCN(c1cccc(O[Si](C)(C)C(C)(C)C)c1)C2=O` [Example 111, 6-(3-((tert-butyldimethylsilyl)oxy)phenyl)-2-(ethylamino)-9-methyl-6,7,8,9-tetrahydro-5H-pyrimido[4,5-e][1,4]diazepin-5-one], the Ki was above 3000 nM.

Consider `CCNc1ncc2c(n1)N(C)CCN(c1cccc(Br)c1)C2=O` [Example 112, 6-(3-bromophenyl)-2-(ethylamino)-9-methyl-6,7,8,9-tetrahydro-5H-pyrimido[4,5-e][1,4]diazepin-5-one], for which the Ki is above 3000 nM.

Regarding `CCNc1ncc2c(n1)N(C)CCN(c1cccc(CCO)c1)C2=O` [Example 113, 2-(ethylamino)-6-(3-(2-hydroxyethyl)phenyl)-9-methyl-6,7,8,9-tetrahydro-5H-pyrimido[4,5-e][1,4]diazepin-5-one], the Ki is above 3000 nM.

For `CCNc1ncc2c(n1)N(C)CCN(c1ccc(OC)cc1)C2=O` [Example 114, 2-(ethylamino)-6-(4-methoxyphenyl)-9-methyl-6,7,8,9-tetrahydro-5H-pyrimido[4,5-e][1,4]diazepin-5-one], the Ki was above 3000 nM.

As for `CCNc1ncc2c(n1)N(C)CCN(c1ccc(O[Si](C)(C)C(C)(C)C)cc1)C2=O` [Example 115], the Ki is above 3000 nM.

Take `CCNc1ncc2c(n1)N(C)CCN(c1cccc(-n3cc(CN(C)C(=O)OC(C)(C)C)nn3)c1)C2=O` [Example 116, tert-butyl ((1-(3-(2-(ethylamino)-9-methyl-5-oxo-5,7,8,9-tetrahydro-6H-pyrimido[4,5-e][1,4]diazepin-6-yl)phenyl)-1H-1,2,3-triazol-4-yl)methyl)(methyl) carbamate]: the Ki was above 3000 nM.

`CCNc1ncc2c(n1)N(C)CCN(c1cccc(-n3cc(CNC(=O)OC(C)(C)C)nn3)c1)C2=O` [Example 117, tert-butyl ((1-(3-(2-(ethylamino)-9-methyl-5-oxo-5,7,8,9-tetrahydro-6H-pyrimido[4,5-e][1,4]diazepin-6-yl)phenyl)-1H-1,2,3-triazol-4-yl)methyl)carbamate]: the Ki is above 3000 nM.

In the case of `CCNc1ncc2c(n1)N(C)CCN(c1cccc(-n3cc(CN(Cc4ccccc4)C(=O)OC(C)(C)C)nn3)c1)C2=O` [Example 118, tert-butyl benzyl((1-(3-(2-(ethylamino)-9-methyl-5-oxo-5,7,8,9-tetrahydro-6H-pyrimido[4,5-e][1,4]diazepin-6-yl)phenyl)-1H-1,2,3-triazol-4-yl)methyl)carbamate], the inhibitory constant (Ki) is above 3000 nM.

`CCNc1ncc2c(n1)N(C)CCN(c1cccc(-n3cc(C(OCC)OCC)nn3)c1)C2=O` [Example 119, 6-(3-(4-(diethoxymethyl)-1H-1,2,3-triazol-1-yl)phenyl)-2-(ethylamino)-9-methyl-6,7,8,9-tetrahydro-5H-pyrimido[4,5-e][1,4]diazepin-5-one]: the Ki is above 3000 nM.

`CCNc1ncc2c(n1)N(C)CCN(c1cccc(-n3cc(CCN(C)C(=O)OC(C)(C)C)nn3)c1)C2=O` [Example 120, tert-butyl (2-(1-(3-(2-(ethylamino)-9-methyl-5-oxo-5,7,8,9-tetrahydro-6H-pyrimido[4,5-e][1,4]diazepin-6-yl)phenyl)-1H-1,2,3-triazol-4-yl)ethyl)(methyl) carbamate]: the Ki was above 3000 nM.

In the case of `CCNc1ncc2c(n1)N(C)CCN(c1cccc(Cn3cc(CN(C)C(=O)OC(C)(C)C)nn3)c1)C2=O` [Example 121, tert-butyl ((1-(3-(2-(ethylamino)-9-methyl-5-oxo-5,7,8,9-tetrahydro-6H-pyrimido[4,5-e][1,4]diazepin-6-yl)benzyl)-1H-1,2,3-triazol-4-yl)methyl)(methyl) carbamate], the Ki was above 3000 nM.

In the case of `CCNc1ncc2c(n1)N(C)CCN(c1cccc(-n3cc(CN(C)C(=O)OC(C)(C)C)cn3)c1)C2=O` [Example 122, tert-butyl ((1-(3-(2-(ethylamino)-9-methyl-5-oxo-5,7,8,9-tetrahydro-6H-pyrimido[4,5-e][1,4]diazepin-6-yl)phenyl)-1H-pyrazol-4-yl)methyl)(methyl) carbamate], the Ki was above 3000 nM.

Turning to `CCNc1ncc2c(n1)N(C)CCN(c1cccc(-n3cnc(CN(C)C(=O)OC(C)(C)C)c3)c1)C2=O` [Example 123, tert-butyl ((1-(3-(2-(ethylamino)-9-methyl-5-oxo-5,7,8,9-tetrahydro-6H-pyrimido[4,5-e][1,4]diazepin-6-yl)phenyl)-1H-imidazol-4-yl)methyl)(methyl) carbamate], the inhibitory constant (Ki) was above 3000 nM.

In the case of `CCNc1ncc2c(n1)N(C)CCN(c1cccc(-c3nnc(CN(C)C(=O)OC(C)(C)C)o3)c1)C2=O` [Example 124, tert-butyl ((5-(3-(2-(ethylamino)-9-methyl-5-oxo-5,7,8,9-tetrahydro-6H-pyrimido[4,5-e][1,4]diazepin-6-yl)phenyl)-1,3,4-oxadiazol-2-yl)methyl)(methyl) carbamate], the inhibition constant (Ki) is above 3000 nM.

As for `CCNc1ncc2c(n1)N(C)CCN(c1ccccc1OC(CCN(C)C(=O)OC(C)(C)C)c1ccccc1)C2=O` (stereo not shown) [Example 125, tert-butyl (3-(2-(2-(ethylamino)-9-methyl-5-oxo-5,7,8,9-tetrahydro-6H-pyrimido[4,5-e][1,4]diazepin-6-yl)phenoxy)-3-phenylpropyl)(methyl) carbamate], the Ki is above 3000 nM.

On to `CCNc1ncc2c(n1)N(C)CCN(c1cccc(COC(CCN(C)C(=O)OC(C)(C)C)C(C)C)c1)C2=O` (stereo not shown) [Example 126, tert-butyl (3-((3-(2-(ethylamino)-9-methyl-5-oxo-5,7,8,9-tetrahydro-6H-pyrimido[4,5-e][1,4]diazepin-6-yl)benzyl)oxy)-4-methylpentyl)(methyl) carbamate], for which the Ki was above 3000 nM.

As to `CCNc1ncc2c(n1)N(C)CCN(c1cccc(COC(C)CCN(C)C(=O)OC(C)(C)C)c1)C2=O` (stereo not shown) [Example 127, tert-butyl (3-((3-(2-(ethylamino)-9-methyl-5-oxo-5,7,8,9-tetrahydro-6H-pyrimido[4,5-e][1,4]diazepin-6-yl)benzyl)oxy)butyl) (methyl)carbamate], the Ki was above 3000 nM.

Consider `CCNc1ncc2c(n1)N(C)CCN(c1cccc(OC(CCN(C)C(=O)OC(C)(C)C)c3ccccn3)c1)C2=O` (stereo not shown) [Example 128, tert-butyl (3-(3-(2-(ethylamino)-9-methyl-5-oxo-5,7,8,9-tetrahydro-6H-pyrimido[4,5-e][1,4]diazepin-6-yl)phenoxy)-3-(pyridin-2-yl)propyl)(methyl) carbamate], for which the Ki is above 3000 nM.

`CCNc1ncc2c(n1)N(C)CCN(c1cccc(OC(CCN(C)C(=O)OC(C)(C)C)c3cccnc3)c1)C2=O` (stereo not shown) [Example 129, tert-butyl (3-(3-(2-(ethylamino)-9-methyl-5-oxo-5,7,8,9-tetrahydro-6H-pyrimido[4,5-e][1,4]diazepin-6-yl)phenoxy)-3-(pyridin-3-yl)propyl)(methyl) carbamate]: the Ki was above 3000 nM.

On to `CN(CC[C@@H](OCc1cccc(N2CCN(C)c3nc(N)ncc3C2=O)c1)c1ccccc1)C(=O)OC(C)(C)C` [Example 130, tert-butyl (R)-(3-((3-(2-amino-9-methyl-5-oxo-5,7,8,9-tetrahydro-6H-pyrimido[4,5-e][1,4]diazepin-6-yl)benzyl)oxy)-3-phenylpropyl)(methyl) carbamate], for which the inhibitory constant (Ki) is above 3000 nM.

In the case of `CN(CC[C@@H](OCc1cccc(N2CCN(C)c3nc(N(C)C)ncc3C2=O)c1)c1ccccc1)C(=O)OC(C)(C)C` [Example 131, tert-butyl (R)-(3-((3-(2-(dimethylamino)-9-methyl-5-oxo-5,7,8,9-tetrahydro-6H-pyrimido[4,5-e][1,4]diazepin-6-yl)benzyl)oxy)-3-phenylpropyl)(methyl) carbamate], the Ki was above 3000 nM.

In general, Ki refers to a dissociation constant, usually derived from enzyme kinetics or from competition with a known ligand.
